Patent US8486951B2 (Deciphera Pharmaceuticals, LLC, priority 2008, dated 2013)

How the values were obtained:
[1] = target: T1, c-MET kinase (Seq. ID no. 2) (Homo sapiens, UniProt P08581); test: c-MET Kinase Assay (ADP production, pyruvate kinase/lactate dehydrogenase coupled); format: biochemical; settings: read-out: cMET Enzyme Assay
T1 construct: purchased Invitrogen PV3143
Description: In this assay, the oxidation of NADH (thus the decrease at A340 nm) was continuously monitored spectrophometrically. […] Test compounds were incubated with C-Met (Seq. ID no. 2) and other reaction reagents at 22° C. for 0.5 h before ATP (100 μM) was added to start the reaction. The absorption at 340 nm was monitored continuously for 2 hours at 30° C. on Polarstar Optima plate reader (BMG). The reaction rate was calculated using the 1.0 to 2.0 h time frame. Percent inhibition was obtained by comparison of reaction rate with that of a control (i.e. with no test compound). IC50 values were calculated from a series of percent inhibition values determined at a range of inhibitor concentrations using software routines as implemented in the GraphPad Prism software package.

[2] = target: T2, c-KIT kinase (Seq. ID no. 1) (Homo sapiens, UniProt P10721); test: c-KIT kinase Assay (ADP production, pyruvate kinase/lactate dehydrogenase coupled); format: biochemical; settings: read-out: cKIT Enzyme Assay
T2 construct: purchased ProQinase
Description: In this assay, the oxidation of NADH (thus the decrease at A340 nm) was continuously monitored spectrophometrically. […] The absorption at 340 nm was monitored continuously for 0.5 hours at 30° C. on Polarstar Optima plate reader (BMG). The reaction rate was calculated using the 0 to 0.5 h time frame. Percent inhibition was obtained by comparison of reaction rate with that of a control (i.e. with no test compound). IC50 values were calculated from a series of percent inhibition values determined at a range of inhibitor concentrations using software routines as implemented in the GraphPad Prism software package.

[3] = target: KDR kinase (Seq ID No. 3) (Homo sapiens, UniProt P35968, DEL940-989/E990V); test: KDR Kinase Assay (assays K1, K2, K3); format: biochemical; settings: assay variant K1, K2 or K3 not stated; read-out: KDR Enzyme Assay
[4] = target: T3, FMS kinase (Homo sapiens, UniProt P07333); test: FMS Kinase Assay; format: biochemical; settings: read-out: FMS Enzyme Assay
T3 construct: purchased Invitrogen or Millipore
Description: (§1) In this assay, the oxidation of NADH (thus the decrease at A340 nm) was continuously monitored spectrophometrically. The reaction mixture (100 μl) contained FMS (purchased from Invitrogen or Millipore, 6 nM), polyE4Y (1 mg/ml), MgCl2 (10 mM), pyruvate kinase (4 units), lactate dehydrogenase (0.7 units), phosphoenol pyruvate (1 mM) and NADH (0.28 mM) and ATP (500 μM) in a 90 mM Tris buffer containing 0.2% octyl-glucoside and 1% DMSO, pH 7.5. The inhibition reaction was started by mixing serial diluted test compound with the above reaction mixture. The absorption at 340 nm was monitored continuously for 4 hours at 30° C. on a Polarstar Optima or Synergy 2 plate reader. The reaction rate was calculated using the 2 to 3 h time frame. Percent inhibition was obtained by comparison of reaction rate with that of a control (i.e. with no test compound). IC50 values were calculated from a series of percent inhibition values determined at a range of inhibitor concentrations using software routines as implemented in the GraphPad Prism software package.

[5] = target: T4, PDGFRα kinase (Homo sapiens, UniProt P16234); test: PDGFRα Kinase Assay; format: biochemical; settings: read-out: PDGFRa Enzyme Assay
T4 construct: purchased Invitrogen
Description: as §1, with “Activity of PDGFRα kinase was determined by following the production of ADP from the kinase reaction through coupling with the pyruvate kinase/lactate dehydrogenase system. In” for “In”, “PDGFRα (Invitrogen, 10” for “FMS (purchased from Invitrogen or Millipore, 6”

[6] = target: T5, PDGFRβ (Homo sapiens, UniProt P09619); test: PDGFRβ Kinase Assay; format: biochemical; settings: read-out: PDGFRb Enzyme Assay
T5 construct: purchased Invitrogen

[7] = tested on: EBC-1 cells; test: EBC-1 Cell Proliferation Assay (resazurin); format: cell-based; settings: Homo sapiens, 67 h + 5 h resazurin, read-out: EBC1 Cell Proliferation
Description: EBC-1 cells (catalog #JCRB0820) were obtained from the Japan Health Science Research Resources Bank, Osaka, Japan. Briefly, cells were grown in DMEM supplemented with 10% characterized fetal bovine serum (Invitrogen, Carlsbad, Calif.) at 37 degrees Celsius, 5% CO2, 95% humidity. Cells were allowed to expand until reaching 70-95% confluency at which point they were subcultured or harvested for assay use.
EBC-1 Cell Proliferation Assay
A serial dilution of test compound was dispensed into a 96-well black clear bottom plate (Corning, Corning, N.Y.). For each cell line, five thousand cells were added per well in 200 μL complete growth medium. Plates were incubated for 67 hours at 37 degrees Celsius, 5% CO2, 95% humidity. […] Data was analyzed using Prism software (Graphpad, San Diego, Calif.) to calculate IC50 values.

T2 sequence (P10721 with tags, fused parts or gaps): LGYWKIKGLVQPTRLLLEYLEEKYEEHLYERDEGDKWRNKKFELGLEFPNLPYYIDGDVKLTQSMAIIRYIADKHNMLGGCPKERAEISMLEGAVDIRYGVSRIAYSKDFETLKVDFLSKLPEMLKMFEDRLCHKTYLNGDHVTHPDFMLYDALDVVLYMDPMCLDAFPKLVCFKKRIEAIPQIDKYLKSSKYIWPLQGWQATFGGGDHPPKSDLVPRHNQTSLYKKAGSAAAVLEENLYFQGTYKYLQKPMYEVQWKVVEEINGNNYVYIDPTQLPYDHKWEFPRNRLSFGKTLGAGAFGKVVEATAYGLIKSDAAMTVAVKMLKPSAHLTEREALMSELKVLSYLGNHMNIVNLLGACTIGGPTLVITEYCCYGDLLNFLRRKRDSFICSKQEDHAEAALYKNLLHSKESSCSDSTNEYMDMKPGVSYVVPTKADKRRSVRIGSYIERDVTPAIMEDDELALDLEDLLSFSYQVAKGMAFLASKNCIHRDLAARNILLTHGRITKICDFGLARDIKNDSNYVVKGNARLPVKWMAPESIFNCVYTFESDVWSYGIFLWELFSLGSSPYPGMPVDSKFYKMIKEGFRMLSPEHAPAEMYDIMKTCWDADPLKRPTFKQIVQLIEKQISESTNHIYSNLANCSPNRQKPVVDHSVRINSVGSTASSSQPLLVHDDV
T1 sequence (P08581 with tags, fused parts or gaps): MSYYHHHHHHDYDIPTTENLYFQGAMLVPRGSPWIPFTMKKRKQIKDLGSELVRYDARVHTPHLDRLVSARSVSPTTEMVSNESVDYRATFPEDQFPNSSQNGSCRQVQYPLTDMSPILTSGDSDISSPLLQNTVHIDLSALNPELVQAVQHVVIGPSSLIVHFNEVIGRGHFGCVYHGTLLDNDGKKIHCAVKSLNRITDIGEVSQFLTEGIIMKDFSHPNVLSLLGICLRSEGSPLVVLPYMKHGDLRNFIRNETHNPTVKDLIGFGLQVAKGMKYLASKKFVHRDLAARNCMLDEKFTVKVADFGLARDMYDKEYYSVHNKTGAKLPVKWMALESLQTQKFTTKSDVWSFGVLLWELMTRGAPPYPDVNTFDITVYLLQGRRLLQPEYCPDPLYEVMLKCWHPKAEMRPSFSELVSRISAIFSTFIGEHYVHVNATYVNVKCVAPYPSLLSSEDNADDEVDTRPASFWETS
KDR kinase (Seq ID No. 3), sequence (P35968 with tags, fused parts or gaps DEL940-989/E990V): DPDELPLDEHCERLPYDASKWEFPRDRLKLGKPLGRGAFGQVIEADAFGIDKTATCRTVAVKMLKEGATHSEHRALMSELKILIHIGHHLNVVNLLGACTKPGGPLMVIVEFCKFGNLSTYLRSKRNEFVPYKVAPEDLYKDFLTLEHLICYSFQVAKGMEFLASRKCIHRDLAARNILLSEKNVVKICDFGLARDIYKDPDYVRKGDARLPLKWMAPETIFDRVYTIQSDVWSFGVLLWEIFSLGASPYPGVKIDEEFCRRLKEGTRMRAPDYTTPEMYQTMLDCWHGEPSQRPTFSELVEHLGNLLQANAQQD
T5 sequence (P09619 33-1106): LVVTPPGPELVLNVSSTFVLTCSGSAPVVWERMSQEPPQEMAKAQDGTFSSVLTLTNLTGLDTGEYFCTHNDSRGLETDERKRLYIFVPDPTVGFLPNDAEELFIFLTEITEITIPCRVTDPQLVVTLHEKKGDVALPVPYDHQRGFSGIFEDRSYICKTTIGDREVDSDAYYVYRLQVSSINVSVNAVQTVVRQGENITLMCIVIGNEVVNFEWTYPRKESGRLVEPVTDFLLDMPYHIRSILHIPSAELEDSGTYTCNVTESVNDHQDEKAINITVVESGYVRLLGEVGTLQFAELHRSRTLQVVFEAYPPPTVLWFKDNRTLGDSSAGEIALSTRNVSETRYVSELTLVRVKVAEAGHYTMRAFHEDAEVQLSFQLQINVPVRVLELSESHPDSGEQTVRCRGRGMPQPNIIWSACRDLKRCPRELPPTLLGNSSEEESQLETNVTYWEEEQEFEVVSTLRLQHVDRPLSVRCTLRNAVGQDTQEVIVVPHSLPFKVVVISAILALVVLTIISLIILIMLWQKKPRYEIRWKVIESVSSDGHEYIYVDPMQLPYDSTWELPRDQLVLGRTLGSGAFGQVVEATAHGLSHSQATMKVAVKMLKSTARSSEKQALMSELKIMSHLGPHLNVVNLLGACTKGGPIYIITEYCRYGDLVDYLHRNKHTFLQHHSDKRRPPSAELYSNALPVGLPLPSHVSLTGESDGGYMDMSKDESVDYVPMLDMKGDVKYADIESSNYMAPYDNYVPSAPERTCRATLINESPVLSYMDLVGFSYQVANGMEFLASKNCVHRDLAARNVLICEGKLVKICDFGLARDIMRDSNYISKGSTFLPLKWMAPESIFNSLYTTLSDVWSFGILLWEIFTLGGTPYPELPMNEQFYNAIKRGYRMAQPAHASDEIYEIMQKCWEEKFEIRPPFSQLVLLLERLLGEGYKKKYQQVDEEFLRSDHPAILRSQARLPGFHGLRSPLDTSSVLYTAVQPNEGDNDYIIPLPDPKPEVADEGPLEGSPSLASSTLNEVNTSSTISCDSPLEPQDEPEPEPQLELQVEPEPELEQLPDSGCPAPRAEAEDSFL
T4 sequence (P16234 24-1089): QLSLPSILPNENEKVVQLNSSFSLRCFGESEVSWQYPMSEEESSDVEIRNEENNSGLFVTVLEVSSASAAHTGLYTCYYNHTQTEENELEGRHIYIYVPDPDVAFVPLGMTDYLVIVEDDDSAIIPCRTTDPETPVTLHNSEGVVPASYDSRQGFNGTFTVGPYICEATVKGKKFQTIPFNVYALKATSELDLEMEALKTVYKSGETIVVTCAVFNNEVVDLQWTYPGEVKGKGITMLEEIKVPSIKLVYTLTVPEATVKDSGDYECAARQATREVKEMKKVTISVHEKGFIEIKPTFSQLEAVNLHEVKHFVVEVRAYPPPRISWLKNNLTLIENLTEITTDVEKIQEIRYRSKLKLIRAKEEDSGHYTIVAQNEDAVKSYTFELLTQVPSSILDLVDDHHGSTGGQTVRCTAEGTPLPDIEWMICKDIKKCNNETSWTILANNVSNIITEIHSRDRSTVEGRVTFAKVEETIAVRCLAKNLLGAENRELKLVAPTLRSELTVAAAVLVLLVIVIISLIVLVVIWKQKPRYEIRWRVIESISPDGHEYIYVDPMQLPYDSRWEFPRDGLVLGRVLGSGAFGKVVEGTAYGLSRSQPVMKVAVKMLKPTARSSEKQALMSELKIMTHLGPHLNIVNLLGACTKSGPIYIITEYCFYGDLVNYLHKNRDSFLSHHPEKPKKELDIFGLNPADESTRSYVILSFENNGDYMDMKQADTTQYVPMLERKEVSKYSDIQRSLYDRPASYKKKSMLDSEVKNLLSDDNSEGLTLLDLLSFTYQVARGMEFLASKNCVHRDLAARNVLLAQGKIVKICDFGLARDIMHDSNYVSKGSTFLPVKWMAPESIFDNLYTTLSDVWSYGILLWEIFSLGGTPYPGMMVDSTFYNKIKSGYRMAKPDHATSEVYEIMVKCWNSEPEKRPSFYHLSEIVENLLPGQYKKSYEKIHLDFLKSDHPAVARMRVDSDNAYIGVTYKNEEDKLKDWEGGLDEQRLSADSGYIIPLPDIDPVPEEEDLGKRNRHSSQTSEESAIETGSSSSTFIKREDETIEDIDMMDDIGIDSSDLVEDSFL
T3 sequence (P07333 20-972): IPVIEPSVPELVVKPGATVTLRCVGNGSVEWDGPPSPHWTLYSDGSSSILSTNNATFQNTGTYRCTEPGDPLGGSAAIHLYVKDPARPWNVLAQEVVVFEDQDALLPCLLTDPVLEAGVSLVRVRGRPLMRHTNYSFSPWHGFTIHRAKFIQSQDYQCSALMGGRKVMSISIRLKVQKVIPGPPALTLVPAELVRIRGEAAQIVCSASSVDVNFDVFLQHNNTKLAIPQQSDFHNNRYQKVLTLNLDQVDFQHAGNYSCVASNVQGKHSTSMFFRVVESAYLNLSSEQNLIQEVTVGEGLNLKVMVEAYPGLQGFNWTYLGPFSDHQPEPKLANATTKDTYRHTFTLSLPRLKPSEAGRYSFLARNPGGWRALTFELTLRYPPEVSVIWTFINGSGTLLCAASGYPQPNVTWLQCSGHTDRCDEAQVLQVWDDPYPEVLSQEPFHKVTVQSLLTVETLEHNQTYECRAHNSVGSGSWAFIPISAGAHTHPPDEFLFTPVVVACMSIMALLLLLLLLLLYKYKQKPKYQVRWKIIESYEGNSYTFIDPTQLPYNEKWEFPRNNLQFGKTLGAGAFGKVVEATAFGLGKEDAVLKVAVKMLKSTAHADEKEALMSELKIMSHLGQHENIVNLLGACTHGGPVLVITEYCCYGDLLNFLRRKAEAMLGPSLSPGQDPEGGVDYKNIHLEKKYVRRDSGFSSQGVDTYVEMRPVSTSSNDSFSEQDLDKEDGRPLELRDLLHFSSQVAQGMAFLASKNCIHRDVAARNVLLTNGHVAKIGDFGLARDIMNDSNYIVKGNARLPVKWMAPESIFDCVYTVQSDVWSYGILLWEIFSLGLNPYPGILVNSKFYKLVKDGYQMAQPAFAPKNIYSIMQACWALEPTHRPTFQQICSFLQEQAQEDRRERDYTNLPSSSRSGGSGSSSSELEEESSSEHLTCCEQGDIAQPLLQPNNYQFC

Molecule | IC50 [1] | IC50 [2] | IC50 [3] | IC50 [4] | IC50 [5] | IC50 [6] | IC50 [7]
1-(2,3-difluoro-4-(2-(1H-pyrazol-4-yl)pyridin-4-yloxy)phenyl)-3-(2-(4-fluorophenyl)acetyl)urea [Example 43] | < 2000 nM | < 2000 nM | < 10000 nM | < 200 nM | < 200 nM | < 2000 nM | –
Cn1cc(-c2cc(Oc3ccc(NC(=O)C4(C(=O)NCc5ccccc5)CC4)cc3F)ccn2)cn1 [Example 4, N-benzyl-N′-(3-fluoro-4-(2-(1-methyl-1H-pyrazol-4-yl)pyridin-4-yloxy)phenyl)cyclopropane-1,1-dicarboxamide] | – | < 2000 nM | < 2000 nM | < 200 nM | < 10000 nM | < 10000 nM | –
C[C@H](NC(=O)C1(C(=O)Nc2ccc(Oc3ccnc(-c4cnn(C)c4)c3)c(F)c2)CC1)c1ccccc1 [Example 16, N-(3-fluoro-4-(2-(1-methyl-1H-pyrazol-4-yl)pyridin-4-yloxy)phenyl)-N′-((S)-1-phenylethyl)cyclopropane-1,1-dicarboxamide] | – | < 200 nM | < 10000 nM | < 200 nM | < 2000 nM | < 10000 nM | < 10000 nM
C[C@@H](NC(=O)C1(C(=O)Nc2ccc(Oc3ccnc(-c4cnn(C)c4)c3)c(F)c2)CC1)c1ccccc1 [Example 17, N-(3-fluoro-4-(2-(1-methyl-1H-pyrazol-4-yl)pyridin-4-yloxy)phenyl)-N′-((R)-1-phenylethyl)cyclopropane-1,1-dicarboxamide] | – | < 2000 nM | < 10000 nM | < 200 nM | < 10000 nM | < 10000 nM | –
CCn1cc(-c2cc(Oc3ccc(NC(=O)C4(C(=O)Nc5ccc(F)cc5)CC4)cc3F)ccn2)cn1 [Example 19, N-(4-(2-(1-ethyl-1H-pyrazol-4-yl)pyridin-4-yloxy)-3-fluorophenyl)-N′-(4-fluorophenyl)cyclopropane-1,1-dicarboxamide] | – | – | – | – | – | – | < 2000 nM
CCCn1cc(-c2cc(Oc3ccc(NC(=O)C4(C(=O)Nc5ccc(F)cc5)CC4)cc3F)ccn2)cn1 [Example 20, N-(3-fluoro-4-(2-(1-propyl-1H-pyrazol-4-yl)pyridin-4-yloxy)phenyl)-N′-(4-fluorophenyl)cyclopropane-1,1-dicarboxamide] | – | – | – | – | – | – | < 2000 nM
Cn1cc(-c2cc(Oc3cc(F)c(NC(=O)NC(=O)Cc4ccc(F)cc4)cc3Cl)ccn2)cn1 [Example 46, 1-(5-chloro-2-fluoro-4-(2-(1-methyl-1H-pyrazol-4-yl)pyridin-4-yloxy)phenyl)-3-(2-(4-fluorophenyl)acetyl)urea] | < 200 nM | < 200 nM | < 2000 nM | – | < 200 nM | < 200 nM | < 200 nM
Cn1cc(-c2cc(Oc3c(F)cc(NC(=O)NC(=O)Cc4ccc(F)cc4)cc3F)ccn2)cn1 [Example 48, 1-(3,5-difluoro-4-(2-(1-methyl-1H-pyrazol-4-yl)pyridin-4-yloxy)phenyl)-3-(2-(4-fluorophenyl)acetyl)urea] | < 10000 nM | < 2000 nM | < 2000 nM | < 10000 nM | < 10000 nM | < 10000 nM | –
Cc1c(-c2cc(Oc3cc(F)c(NC(=O)C4(C(=O)Nc5ccc(F)cc5)CC4)cc3F)ccn2)cnn1C [Example 50, N-(4-(2-(1,5-dimethyl-1H-pyrazol-4-yl)pyridin-4-yloxy)-2,5-difluorophenyl)-N′-(4-fluorophenyl)cyclopropane-1,1-dicarboxamide] | < 200 nM | < 200 nM | < 200 nM | – | < 2000 nM | < 10000 nM | < 200 nM
Cc1cc(-c2cc(Oc3ccc(NC(=O)C4(C(=O)Nc5ccc(F)cc5)CC4)c(F)c3)ccn2)on1 [Example 59, N-(2-fluoro-4-(2-(3-methylisoxazol-5-yl)pyridin-4-yloxy)phenyl)-N′-(4-fluorophenyl)cyclopropane-1,1-dicarboxamide] | < 200 nM | – | < 10000 nM | < 200 nM | – | – | –

Second part, led by results:

IC50 [1] | IC50 [2] | IC50 [3] | IC50 [4] | IC50 [5] | IC50 [6] | Molecule | IC50 [7]
– | < 10000 nM | < 200 nM | < 2000 nM | < 2000 nM | < 10000 nM | Cn1cc(-c2cc(Oc3ccc(NC(=O)C4(C(=O)Nc5cccc(C(F)(F)F)c5)CC4)cc3F)ccn2)cn1 [Example 6, N-(3-fluoro-4-(2-(1-methyl-1H-pyrazol-4-yl)pyridin-4-yloxy)phenyl)-N′-(3-(trifluoromethyl)phenyl)cyclopropane-1,1-dicarboxamide] | < 10000 nM
< 2000 nM | < 2000 nM | < 2000 nM | – | < 2000 nM | < 10000 nM | O=C(Nc1ccc(F)cc1)C1(C(=O)Nc2ccc(Oc3ccnc(-c4cnn(CCO)c4)c3)c(F)c2)CC1 [Example 21, N-(3-fluoro-4-(2-(1-(2-hydroxyethyl)-1H-pyrazol-4-yl)pyridin-4-yloxy)phenyl)-N′-(4-fluorophenyl)cyclopropane-1,1-dicarboxamide] | < 2000 nM
< 200 nM | < 200 nM | – | – | < 2000 nM | < 10000 nM | Cn1cc(-c2cc(Oc3ccc(NC(=O)C4(C(=O)Nc5ccc(F)cc5)CC4)cc3Cl)ccn2)cn1 [Example 30, N-(3-chloro-4-(2-(1-methyl-1H-pyrazol-4-yl)pyridin-4-yloxy)phenyl)-N′-(4-fluorophenyl)cyclopropane-1,1-dicarboxamide] | < 2000 nM
< 200 nM | – | – | – | – | – | O=C(Nc1ccc(F)cc1)C1(C(=O)Nc2ccc(Oc3ccnc(-c4cn[nH]c4)c3)c(F)c2)CC1 [Example 31, N-(4-(2-(1H-pyrazol-4-yl)pyridin-4-yloxy)-3-fluorophenyl)-N′-(4-fluorophenyl)cyclopropane-1,1-dicarboxamide] | < 2000 nM
< 200 nM | < 200 nM | < 2000 nM | – | < 200 nM | < 10000 nM | Cn1cc(-c2cc(Oc3cc(F)c(NC(=O)C4(C(=O)Nc5ccc(F)cc5)CC4)cc3Cl)ccn2)cn1 [Example 47, N-(5-chloro-2-fluoro-4-(2-(1-methyl-1H-pyrazol-4-yl)pyridin-4-yloxy)phenyl)-N′-(4-fluorophenyl)cyclopropane-1,1-dicarboxamide] | < 200 nM
< 10000 nM | < 10000 nM | < 10000 nM | < 10000 nM | < 10000 nM | < 10000 nM | O=C(Nc1ccc(F)cc1)C1(C(=O)Nc2cc(Oc3nccc(-c4cn[nH]c4)n3)ccc2F)CC1 [Example 55, N-(5-(4-(1H-pyrazol-4-yl)pyrimidin-2-yloxy)-2-fluorophenyl)-N′-(4-fluorophenyl)cyclopropane-1,1-dicarboxamide] | –
